According to PubChem BioAssay AID330 (DTP/NCI, 2004):
Values joined by “and” are separate entries in the source; they are usually repeats but may differ in a detail not shown here. Equal entries are not always repeated. Inconclusive results and toxic doses are left out.

System: P388 leukemia ip, CD2F1 mice, survival T/C
Test: NCI In Vivo Anticancer Drug Screen. Data for tumor model P388 Leukemia (intraperitoneal) in CD2F1 (CDF1) mice
Conditions: endpoint: median survival time, higher = longer survival
Procedure, shortened: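 Mice carrying the transplanted tumor received test compound or vehicle. Survival was recorded in each group, and the value is the treated-group measurement divided by that of the vehicle-treated control group.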

[1] = dose: 12.5 mg/kg/injection, schedule: Q01DX009 (ip), vehicle: saline
[2] = dose: 25.0 mg/kg/injection, schedule: Q01DX009 (ip), vehicle: saline
[3] = dose: 50.0 mg/kg/injection, schedule: Q01DX009 (ip), vehicle: saline
[4] = dose: 200.0 mg/kg/injection, schedule: Q01DX009 (ip), vehicle: saline
[5] = dose: 12.5 mg/kg/injection, schedule: Q01DX009 (ip), vehicle: Klucel (hydroxypropylcellulose) (HPC)
[6] = dose: 25.0 mg/kg/injection, schedule: Q01DX009 (ip), vehicle: Klucel (hydroxypropylcellulose) (HPC)
[7] = dose: 50.0 mg/kg/injection, schedule: Q01DX009 (ip), vehicle: Klucel (hydroxypropylcellulose) (HPC)
[8] = dose: 60.0 mg/kg/injection, schedule: Q01DX005 (ip), vehicle: saline with Tween-80
[9] = dose: 120.0 mg/kg/injection, schedule: Q01DX005 (ip), vehicle: saline with Tween-80
[10] = dose: 100.0 mg/kg/injection, schedule: Q04DX003 (ip), vehicle: saline with Tween-80
[11] = dose: 200.0 mg/kg/injection, schedule: Q04DX003 (ip), vehicle: saline with Tween-80
[12] = dose: 400.0 mg/kg/injection, schedule: Q04DX003 (ip), vehicle: saline with Tween-80
[13] = dose: 100.0 mg/kg/injection, schedule: Q01DX001 (ip), vehicle: saline with Tween-80
[14] = dose: 200.0 mg/kg/injection, schedule: Q01DX001 (ip), vehicle: saline with Tween-80
[15] = dose: 400.0 mg/kg/injection, schedule: Q01DX001 (ip), vehicle: saline with Tween-80
[16] = dose: 60.0 mg/kg/injection, schedule: Q01DX005 (ip), vehicle: Klucel (hydroxypropylcellulose) (HPC)
[17] = dose: 120.0 mg/kg/injection, schedule: Q01DX005 (ip), vehicle: Klucel (hydroxypropylcellulose) (HPC)
[18] = dose: 240.0 mg/kg/injection, schedule: Q01DX005 (ip), vehicle: Klucel (hydroxypropylcellulose) (HPC)
[19] = dose: 240.0 mg/kg/injection, schedule: Q01DX005 (ip), vehicle: saline with Tween-80
[20] = dose: 100.0 mg/kg/injection, schedule: Q01DX009 (ip), vehicle: saline with Tween-80
[21] = dose: 200.0 mg/kg/injection, schedule: Q01DX009 (ip), vehicle: saline with Tween-80

For `CCN(CC)CCCC(C)NC(Cc1ccccc1)c1cccc2ccccc12` (configuration not stated), the T/C (dose: 25.0 mg/kg/injection, schedule: Q01DX005 (ip), vehicle: suspension in saline) was 100 % of control and the T/C (dose: 50.0 mg/kg/injection, schedule: Q01DX005 (ip), vehicle: suspension in saline) was 106 % of control.

In the case of `CCN(CC)c1ccc(Pc2ccc(N(CC)CC)cc2)cc1`, the T/C [1] is reported as 104 % of control, the T/C [2] is reported as 108 % of control and the T/C [3] is reported as 99 % of control and 88 % of control. For the same compound, the T/C [4] was 92 % of control.

For `COc1cc2c3cc1Oc1c(OC)c(OC)cc4c1C(Cc1ccc(cc1)Oc1cc(ccc1O)CC3N(C)CC2)N(C)CC4` (configuration not stated), the T/C [5] was 97 % of control, the T/C [6] was 97 % of control and the T/C [7] was 94 % of control. The T/C (dose: 100.0 mg/kg/injection, schedule: Q01DX009 (ip), vehicle: Klucel (hydroxypropylcellulose) (HPC)) was 105 % of control.

For `O=c1[nH]nc(-c2ccccc2)c2c(/C=C/c3ccccc3)onc12`, the T/C [8] was 100 % of control and the T/C [9] was 98 % of control.

`NC(CS)=NCC1C2CC3CC(C2)CC1C3` (configuration not stated) was tested, and the T/C (dose: 0.78 mg/kg/injection, schedule: Q01DX009 (ip), vehicle: Klucel (hydroxypropylcellulose) (HPC)) was 100 % of control, the T/C (dose: 1.56 mg/kg/injection, schedule: Q01DX009 (ip), vehicle: Klucel (hydroxypropylcellulose) (HPC)) was 100 % of control and the T/C (dose: 3.12 mg/kg/injection, schedule: Q01DX009 (ip), vehicle: Klucel (hydroxypropylcellulose) (HPC)) was 100 % of control and 91 % of control. The T/C (dose: 6.25 mg/kg/injection, schedule: Q01DX009 (ip), vehicle: Klucel (hydroxypropylcellulose) (HPC)) was 104 % of control.

With `C=CCCCCCCCCC(=O)NN1CCOCC1` the T/C [10] was 95 % of control, the T/C [11] was 100 % of control and the T/C [12] was 86 % of control.

`COC(CNC(c1ccccc1)C(O)c1ccccc1)(OC)OC` (configuration not stated) was tested, and the T/C [13] was 97 % of control, the T/C [14] was 97 % of control and the T/C [15] was 97 % of control.

With `O=C(Nc1ccccc1)Nc1nnnc2ccccc12` the T/C [13] was 100 % of control, the T/C [14] was 95 % of control and the T/C [15] was 90 % of control.

For `CC1SC2(C(=O)Nc3ccc(Cl)cc32)N(c2ccc(Cl)cc2)C1=O` (configuration not stated), the T/C [16] was 105 % of control, the T/C [17] was 105 % of control and the T/C [18] was 108 % of control.

For `CCCN(CCC)C(C)C(O)c1cccc2ccccc12` (configuration not stated), the T/C (dose: 50.0 mg/kg/injection, schedule: Q01DX005 (ip), vehicle: saline) was 97 % of control and the T/C (dose: 100.0 mg/kg/injection, schedule: Q01DX005 (ip), vehicle: saline) was 109 % of control.

`O=C(Nc1cc(-c2ccccc2)[nH]n1)c1ccccc1F` was tested, and the T/C (dose: 30.0 mg/kg/injection, schedule: Q01DX005 (ip), vehicle: saline with Tween-80) was 97 % of control, the T/C [8] was 97 % of control and the T/C [9] was 97 % of control. The T/C [19] was 90 % of control.

In the case of `c1ccc(C[N+]23CC[N+](Cc4ccccc4)(CC2)CC3)cc1`, the T/C (dose: 50.0 mg/kg/injection, schedule: Q04DX003 (ip), vehicle: saline) is reported as 95 % of control, the T/C (dose: 100.0 mg/kg/injection, schedule: Q04DX003 (ip), vehicle: saline) is reported as 108 % of control and the T/C (dose: 200.0 mg/kg/injection, schedule: Q04DX003 (ip), vehicle: saline) is reported as 95 % of control.

For `CCN(CC)Cc1c[nH]c2ccccc12`, the T/C [5] was 102 % of control, the T/C [6] was 103 % of control and the T/C [7] was 97 % of control.

`O=C/C=C/C1C=Cc2c3c(c(O)c(O)c2C(=O)C1O)OCC=C3` (configuration not stated) was tested, and the T/C (dose: 6.0 mg/kg/injection, schedule: Q01DX009 (ip), vehicle: Klucel (hydroxypropylcellulose) (HPC)) was 94 % of control, the T/C (dose: 12.0 mg/kg/injection, schedule: Q01DX009 (ip), vehicle: Klucel (hydroxypropylcellulose) (HPC)) was 100 % of control and the T/C (dose: 24.0 mg/kg/injection, schedule: Q01DX009 (ip), vehicle: Klucel (hydroxypropylcellulose) (HPC)) was 97 % of control. For the same compound, the T/C (dose: 48.0 mg/kg/injection, schedule: Q01DX009 (ip), vehicle: Klucel (hydroxypropylcellulose) (HPC)) was 104 % of control.

With `CCc1cccc(CC)c1-n1nnc(C(=O)c2ccccc2)c1C(=O)OC` the T/C (dose: 60.0 mg/kg/injection, schedule: Q01DX005 (ip), vehicle: Klucel + Tween-80) was 100 % of control, the T/C (dose: 120.0 mg/kg/injection, schedule: Q01DX005 (ip), vehicle: Klucel + Tween-80) was 109 % of control and the T/C (dose: 240.0 mg/kg/injection, schedule: Q01DX005 (ip), vehicle: Klucel + Tween-80) was 102 % of control.

For `CCCCCCCCCCCCS(=O)CC(C)O` (configuration not stated), the T/C (dose: 25.0 mg/kg/injection, schedule: Q01DX009 (ip), vehicle: saline + Tween-80 + alcohol) was 99 % of control and 101 % of control, the T/C (dose: 50.0 mg/kg/injection, schedule: Q01DX009 (ip), vehicle: saline + Tween-80 + alcohol) was 95 % of control and 97 % of control and the T/C (dose: 100.0 mg/kg/injection, schedule: Q01DX009 (ip), vehicle: saline + Tween-80 + alcohol) was 92 % of control and 95 % of control. The T/C (dose: 200.0 mg/kg/injection, schedule: Q01DX009 (ip), vehicle: saline + Tween-80 + alcohol) was 99 % of control and 105 % of control and the T/C (dose: 400.0 mg/kg/injection, schedule: Q01DX009 (ip), vehicle: saline + Tween-80 + alcohol) was 99 % of control and 107 % of control.

For `CCCCCCCCCCCCCCCC[N+](C)(C)CC#N`, the T/C [1] was 100 % of control and the T/C [2] was 89 % of control.

`CC1(C)OC(c2ccccc2)=Nc2ccccc21` was tested, and the T/C (dose: 100.0 mg/kg/injection, schedule: Q04DX002 (ip), vehicle: saline) was 104 % of control, the T/C (dose: 200.0 mg/kg/injection, schedule: Q04DX002 (ip), vehicle: saline) was 103 % of control and the T/C (dose: 400.0 mg/kg/injection, schedule: Q04DX002 (ip), vehicle: saline) was 99 % of control.

With `CCC1SC2=NCCN2C1(O)c1ccc(Cl)cc1` (configuration not stated) the T/C [16] was 96 % of control, the T/C [17] was 95 % of control and the T/C [18] was 89 % of control.

With `CNC/C=C/CN(C)C(=S)S` the T/C [3] was 108 % of control, the T/C (dose: 100.0 mg/kg/injection, schedule: Q01DX009 (ip), vehicle: saline) was 92 % of control and the T/C [4] was 96 % of control.

In the case of `Cc1ccc(S(=O)(=O)Nc2cccc3c(NS(=O)(=O)c4ccc(C)cc4)cccc23)cc1`, the T/C [20] is reported as 100 % of control, the T/C [10] is reported as 100 % of control and the T/C [21] is reported as 95 % of control. For the same compound, the T/C [11] was 90 % of control and the T/C [12] was 100 % of control.

For `O=C(CNCCCCNCCCNCC(=O)C(O)C(O)C(O)CO)C(O)C(O)C(O)CO` (configuration not stated), the T/C (dose: 30.0 mg/kg/injection, schedule: Q01DX005 (ip), vehicle: saline) was 104 % of control and the T/C (dose: 60.0 mg/kg/injection, schedule: Q01DX005 (ip), vehicle: saline) was 101 % of control.

In the case of `COc1cc2cccc(N)c2cc1OC`, the T/C (dose: 6.25 mg/kg/injection, schedule: Q01DX009 (ip), vehicle: water) is reported as 106 % of control, the T/C (dose: 12.5 mg/kg/injection, schedule: Q01DX009 (ip), vehicle: water) is reported as 114 % of control and the T/C (dose: 25.0 mg/kg/injection, schedule: Q01DX009 (ip), vehicle: water) is reported as 110 % of control. For the same compound, the T/C (dose: 50.0 mg/kg/injection, schedule: Q01DX009 (ip), vehicle: water) was 110 % of control.

For `CC(/C=C/C(=O)NO)=C\C(C)C(=O)c1ccc(N(C)C)cc1` (configuration not stated), the T/C (dose: 2.19 mg/kg/injection, schedule: Q01DX009 (ip), vehicle: Klucel (hydroxypropylcellulose) (HPC)) was 107 % of control, the T/C (dose: 4.38 mg/kg/injection, schedule: Q01DX009 (ip), vehicle: Klucel (hydroxypropylcellulose) (HPC)) was 114 % of control and the T/C (dose: 8.75 mg/kg/injection, schedule: Q01DX009 (ip), vehicle: Klucel (hydroxypropylcellulose) (HPC)) was 122 % of control and 96 % of control. The T/C (dose: 8.75 mg/kg/injection, schedule: Q01DX009 (ip), vehicle: saline with Tween-80) was 152 % of control, the T/C (dose: 17.5 mg/kg/injection, schedule: Q01DX009 (ip), vehicle: Klucel (hydroxypropylcellulose) (HPC)) was 91 % of control and the T/C (dose: 17.5 mg/kg/injection, schedule: Q01DX009 (ip), vehicle: saline with Tween-80) was 90 % of control.

`COc1cccc(OC)c1N` was tested, and the T/C (dose: 50.0 mg/kg/injection, schedule: Q01DX009 (ip), vehicle: saline with Tween-80) was 108 % of control, the T/C [20] was 108 % of control and the T/C [21] was 92 % of control. The T/C (dose: 400.0 mg/kg/injection, schedule: Q01DX009 (ip), vehicle: saline with Tween-80) was 90 % of control.

`Nc1ccccc1C(=O)CC1OC(=O)c2ccccc21` (configuration not stated) was tested, and the T/C [8] was 105 % of control, the T/C [9] was 105 % of control and the T/C [19] was 97 % of control.
